Results from paper PMC8876231, “Analogues of Natural Chalcones as Efficient Inhibitors of AKR1C3” (Metabolites, 2022).

Tests used:
AKR1C2 = molecular target: T1, AKR1C2 (Homo sapiens, UniProt P52895); assay: AKR1C2 inhibition assay (DHT to 3α-androstanediol); type: biochemical; details: 10 µM compound, mean ± SD
T1 construct: Myc (N); expressed in transfected cells; host or cells: HEK293
T1 sequence (P52895 1-323): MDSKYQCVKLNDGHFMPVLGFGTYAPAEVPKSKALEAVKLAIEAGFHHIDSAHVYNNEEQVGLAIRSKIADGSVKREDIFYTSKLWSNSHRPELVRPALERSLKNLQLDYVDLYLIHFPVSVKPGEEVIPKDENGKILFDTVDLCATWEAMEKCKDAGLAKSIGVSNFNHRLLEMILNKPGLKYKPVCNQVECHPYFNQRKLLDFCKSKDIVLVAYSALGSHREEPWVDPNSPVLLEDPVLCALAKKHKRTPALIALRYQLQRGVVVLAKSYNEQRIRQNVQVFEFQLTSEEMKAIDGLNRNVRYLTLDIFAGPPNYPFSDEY
From the text: For enzymatic assays and inhibitor testing, all enzymes were cloned into bacterial or mammalian expression vectors. AKR1C3 and the human hydroxysteroid dehydrogenases HSD17B1, HSD17B2, HSD17B4 (SDR domain), HSD17B7, and HSD17B10 were cloned into a pGEX vector as described in [71, 72]. The coding sequences for AKR1C1, AKR1C2, and AKR1C4 were cloned by Gateway technology into the pcDNA3-N-MycDest vector according to the manufacturer’s instructions (Life Technologies, Carlsbad, CA, USA). The p11 plasmid coding for HSD17B14 (S205 variant) was a gift from Udo Opperman SGC Oxford, UK. For assays with HSD17B3, HEK293 cells stably expressing HSD17B3 were used. Enzymes were expressed in E. coli BL21 DE3 or E. coli BL21 DE3 Codon Plus RP (Stratagene, San Diego, CA, USA) or in HEK293 cells as described in [71, 72, 73]. Bacterial and cell pellets were stored at −20 °C and −80 °C, respectively, until use.
Inhibition assays were carried out as described in [71, 74]. […] For a detailed assay setup, see Supplementary Table S6. The incubation at 37 °C was stopped with 0.21 M ascorbic acid in methanol:acetic acid 99:1 (v:v) after the time needed to convert approximately 30% of the substrate in a control assay with 1% DMSO, without inhibitor candidate. Substrates and products were extracted from the reaction mixture by solid-phase extraction using C18 cartridges (Phenomenex, Aschaffenburg, Germany) and separated by RP–HPLC in a Beckman–Coulter HPLC Gold system, using the Luna 5 µm C18(2), 125 × 4.0 mm column (Phenomenex). […] Radioactivity was detected by online scintillation counting by using a radioactivity monitor (LB506D, Berthold Technologies, Bad Wildbad, Germany). Conversion of substrates to products was determined by integration of the peak area of the substrate and product peaks in percent. […]

HEK293T cells = assay: Cell Titer Blue cell viability (cytotoxicity) assay; details: 72 h, 1 µM to 100 µM tested
Protocol: For the cultivation of HEK293T cells, Dulbecco’s modified Eagle medium (DMEM, Pan Biotech GmbH, Aidenbach, Germany) supplemented with 10% FCS (Pan Biotech GmbH), 100 U/mL penicillin, and 100 µg/mL streptomycin (Pan Biotech GmbH) was used. The cells were cultured at 37 °C and 5% CO2 in constant humidity. Before cell seeding, culture flasks and multiwell plates were coated with collagen G (0.001% in PBS, Merck, Darmstadt, Germany).
For studying the cytotoxicity of the different chalcones and the positive control compounds cisplatin and etoposide on HEK293T cells, the Cell Titer® Blue (CTB) Cell Viability Assay was used (Promega, Mannheim, Germany). A total of 10,000 cells in a 200 µL culture medium were seeded into each well of a 96-well plate. Then, 24 h after seeding, the cells were treated with 0, 1, 2.5, 5, 7.5, 10, 15, 25, 50, or 100 µM of the different compounds (3 wells per compound and concentration) and incubated for an additional 72 h. For measurement of cell viability, 20 µL of CTB reagent were added to each well, and after 5 h at 37 °C, the metabolic activity was quantified by recording the fluorescence signal (λEx 560 nm, λEm 590 nm) on a Spark plate reader (Tecan Trading GmbH, Männedorf, Switzerland). […] Statistical significances were calculated by one-way ANOVA (Dunnett’s multiple comparison test), * p < 0.05, ** p < 0.005, *** p < 0.0002, **** p < 0.0001.

In the case of `COc1ccc(/C=C/C(=O)c2c(O)cc(O)cc2OC)cc1` [Compound 18], the “Inhibition of AKR1C2 at 10 µM in %” value (AKR1C2) is reported as “not more than 42.3%” and the “Inhibition of AKR1C2 at 10 µM in %” value (AKR1C2; listed as 18 (MF11)) is reported as 21.4 ± 5.1%.
In the case of `O=C(/C=C/c1ccc(Cl)cc1Cl)c1c(O)cc(O)cc1O` [Compound 23, 2,4-dichloro-2′,4′,6′-trihydroxychalcone], the inhibition at 10 µM (AKR1C2) is reported as 94 ± 0.4% and the “Compound concentration at which HEK293T viability was significantly decreased” value (HEK293T cells) is reported as ≥ 50 µM.
In the case of `COc1cc(O)cc(O)c1C(=O)/C=C/c1ccc(Cl)cc1Cl` [Compound 25], the “Compound concentration at which HEK293T viability was significantly decreased” value (HEK293T cells) is reported as 7.5 µM.
